Measured values taken from patent US9644005B2, “Didemnin biosynthetic gene cluster in Tistrella mobilis” (King Abdullah University of Science and Technology, priority 2011, dated 2017).

Key:
[1] = test system: HCT-116 human colon carcinoma cell; test: Cytotoxic activity using HCT-116 human colon carcinoma cell; type: cell-based; details: compounds purified by semi-preparative HPLC; cell line not restated
[2] = test system: herpes simplex virus type 1; details: DNA and RNA viruses such as herpes simplex virus type 1; cited from earlier work
murine leukemia cells = details: cited from earlier work
[3] = phase II human clinical trials; cited from earlier work

Compound	concentration at which strong cytotoxic activity was shown [1] [ng/mL]	antiviral activity [2]	activity against murine leukemia cells (murine leukemia cells)	toxicity in human subjects [3]
nordidemnin B	0.074	–	–	–
CC[C@H](C)[C@H]1NC(=O)[C@@H](NC(=O)[C@@H](CC(C)C)N(C)C(=O)[C@@H]2CCCN2C(=O)C(C)O)[C@@H](C)OC(=O)[C@H](Cc2ccc(OC)cc2)N(C)C(=O)[C@@H]2CCCN2C(=O)[C@H](CC(C)C)NC(=O)[C@@H](C)C(=O)[C@H](C(C)C)OC(=O)C[C@@H]1O (some centres unmarked) [didemnin B]	0.074	strong antiviral agent	strong activity	high toxicity
